# Results as given in US7951382B2, “Methods for treatment of type 2 diabetes” (American Type Culture Collection, priority 2006, dated 2011).
# “Also recorded” adds a separate entry of the source.
# Tests used:
# [1] = tested on: 12 Kinases (kinases involved in insulin receptor signaling pathways); assay: Millipore KinaseProfiler enzyme panel; type: biochemical; details: D3 peptide 0.1 uM and 1 uM, same 12 kinases
# Experimental: (§1) Kinase assays were performed using the ProfilerPro kinase panel kit available from NovaScreen and were validated using the KinaseProfiler enzyme panel available from Millipore.
# [2] = tested on: STZ-induced diabetic C57BL/6 mice; assay: Multiple low dose streptozotocin (STZ)-induced murine model of Diabetes, efficacy of D3 peptide; type: in vivo, male C57BL/6 mice; details: for mortality / survival during the course of the study: experiment 1, to day 36, FIG. 15
# Experimental: Peptide treatment also delayed the onset of Diabetes (mean blood glucose levels≧300 mg/dL) by approximately 14 days, and reduced peak BG levels by 40% (p<0.01) in treated animals. This naturally occurring peptide may represent a safer alternative to small molecule kinase inhibitors for the control of IDDM and associated complications.
# Streptozotocin (Streptozocin, STZ, Zanosar) is a naturally occurring glucosamine-nitrosourea compound that is toxic to insulin producing beta cells in the pancreas. This alkylating agent bears enough similarity to the molecular structure of glucose to be readily transported into beta cells by the highly abundant glucose GLU2 glucose transporter protein. Once inside the cell STZ causes damage to the DNA, resulting in a loss of cellular function.
# Twenty five male C57BL/6 mice aged approximately 6 weeks were randomized into 3 groups of 10, 10 and 5 animals. Beginning on day −6, non-fasting blood glucose (BG) levels for all animals were determined twice weekly using an Ascencia Contour blood glucose reader (Beyer). […] Groups 1 and 3 were intraperitoneally administered 200 μl sterile water alone. Injections continued in a similar fashion every 3 days for the duration of the experiment. Beginning on day 0, Groups 2 and 3 also received 50 mg/kg of STZ in 200 μl of sterile water via the intraperitoneal route for 5 consecutive days. Group 1 animals received a mock intraperitoneal injection of 200 μl of sterile water during the same period (see Table 17). Animals were allowed access to food and water ad libitum and this treatment schedule was followed until day 36.
# In experiment 1, animals were fed normal mouse chow for the duration of the experiment and a fresh vial of STZ was used. Blood glucose measurements for each individual animal were recorded twice weekly for the duration of the experiment. The blood glucose levels in the non diabetic control animals remained stable at approximately 150 mg/dl. However, immediately following the administration of STZ to the two experimental groups, blood glucose levels increased steadily over time and reached a maximum at approximately day 15. No difference in blood glucose levels were observed between D3 treated and untreated STZ-induced animals.
# For the duration of the experiment, the mean blood glucose level of normal control animals was approximately 150 mg/dl. For the purposes of this study, a blood glucose reading in STZ-induced animals more than 2-fold higher than normal (i.e. ≧300 mg/dl) was considered to indicate a diabetic animal. Using this criterion, the incidence and time to onset of diabetes in the treated and untreated STZ groups was determined. […] For both STZ groups, the onset of Diabetes began as early as day 4 post STZ administration. All of the untreated STZ animals were classed as diabetic by day 10.
# In experiment 2, animals were fed a high carbohydrate diet (˜50% sucrose) for the duration of the experiment. An older stock vial of STZ was used. Blood glucose measurements for each individual animal were recorded twice weekly for the duration of the experiment. As expected, the blood glucose levels in the non diabetic control animals remained below 150 mg/dl. […] This trend was maintained for the entire duration of the experiment.
# For the duration of the experiment, the mean blood glucose level of normal control animals was approximately 150 mg/dl. For the purposes of this study, a blood glucose reading in STZ-induced animals more than 2-fold higher than normal (i.e. ≧300 mg/dl) was considered to indicate a diabetic animal. Using this criterion, the incidence and time to onset of Diabetes in the treated and untreated STZ groups was determined. […] For the untreated STZ group, Diabetes onset began as early as day 8 post STZ administration, and 100% of animals were diabetic by day 18. […] By day 36 only 70% of animals in the D3 treated group were classified as diabetic. […]
# kinases = kinases (Homo sapiens, UniProt P15056, V600E); assay: Invitrogen SelectScreen biochemical kinase profiling, Z'-LYTE assay; details: kinase BRAF V599E
# Sequence of kinases (P15056 whole entry V600E): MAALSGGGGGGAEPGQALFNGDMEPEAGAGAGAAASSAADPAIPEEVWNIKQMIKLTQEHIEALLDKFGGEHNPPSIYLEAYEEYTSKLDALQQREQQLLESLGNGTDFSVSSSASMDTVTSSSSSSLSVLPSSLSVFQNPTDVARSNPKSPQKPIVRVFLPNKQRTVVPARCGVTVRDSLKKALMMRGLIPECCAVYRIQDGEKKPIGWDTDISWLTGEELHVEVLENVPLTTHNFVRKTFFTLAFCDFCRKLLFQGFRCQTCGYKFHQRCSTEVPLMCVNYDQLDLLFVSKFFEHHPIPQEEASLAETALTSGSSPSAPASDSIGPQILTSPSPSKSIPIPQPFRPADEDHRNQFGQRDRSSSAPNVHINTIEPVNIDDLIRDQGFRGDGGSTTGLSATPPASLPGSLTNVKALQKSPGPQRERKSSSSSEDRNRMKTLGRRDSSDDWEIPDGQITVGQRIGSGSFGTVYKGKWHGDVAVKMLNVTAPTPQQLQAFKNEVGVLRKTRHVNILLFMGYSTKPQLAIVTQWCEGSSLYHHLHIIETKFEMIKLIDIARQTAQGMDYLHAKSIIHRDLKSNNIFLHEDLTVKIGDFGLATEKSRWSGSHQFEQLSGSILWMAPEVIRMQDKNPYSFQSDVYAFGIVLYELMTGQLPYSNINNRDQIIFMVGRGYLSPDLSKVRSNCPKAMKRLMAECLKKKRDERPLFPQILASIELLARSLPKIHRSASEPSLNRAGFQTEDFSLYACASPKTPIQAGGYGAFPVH
# Description: The Z′-LYTE® biochemical assay employs a fluorescence-based, coupled-enzyme format and is based on the differential sensitivity of phosphorylated and non-phosphorylated peptides to proteolytic cleavage. The peptide substrate is labeled with two fluorophores—one at each end—that make up a FRET pair. In the primary reaction, the kinase transfers the gamma-phosphate of ATP to a single tyrosine, serine or threonine residue in a synthetic FRET-peptide. In the secondary reaction, a site-specific protease recognizes and cleaves non-phosphorylated FRET-peptides. Phosphorylation of FRET-peptides suppresses cleavage by the Development Reagent. Cleavage disrupts FRET between the donor (i.e., coumarin) and acceptor (i.e., fluorescein) fluorophores on the FRET-peptide, whereas uncleaved, phosphorylated FRET-peptides maintain FRET.
# Both cleaved and uncleaved FRET-peptides contribute to the fluorescence signals and therefore to the Emission Ratio. The extent of phosphorylation of the FRET-peptide can be calculated from the Emission Ratio.
# Test Compounds are screened in 1% DMSO (final) in the well. […] All ATP Solutions are diluted to a 4× working concentration in Kinase Buffer (50 mM HEPES pH 7.5, 0.01% BRIJ-35, 10 mM MgCl2, 1 mM EGTA). ATP Km apparent is previously determined using a Z′-LYTE® assay.
# This control yields 100% cleaved peptide in the Development Reaction. […]
# [3] = tested on: 12 Kinases (kinases involved in insulin receptor signaling pathways); assay: NovaScreen ProfilerPro kinase panel / screen of 59 receptors and enzymes at 1 μM; type: biochemical; details: D3 peptide 1 μM, preliminary results
# Experimental: as §1
# [4] = experiment 1, normal mouse chow, fresh vial of STZ
# [5] = experiment 2, high carbohydrate diet
sequence,measurement,setting,value
"SGRPPMIVWFNRPFLIAVSHTHGQTILFMAKVINPVGA [D3 peptide, SGRPPMIVWFNRPFLIAVSHTHGQTILFMAKVINPVGA]",inhibition of kinases of the panel (confirmation),[1],specific inhibition activity on 4 out of 7 kinases
same,reduction of peak BG levels,"[2]; 36-day prophylactic study, STZ-induced male C57BL/6 mice, 1 mg/kg every 3 days, p<0.01",40%
same,delay of the onset of Diabetes (mean blood glucose levels≧300 mg/dL),"[2]; 36-day prophylactic study, STZ-induced male C57BL/6 mice, 1 mg/kg of D3 peptide every 3 days",approximately 14 days
same,time to onset or rate of disease compared to untreated diabetic controls,"[2]; FIG. 14, STZ treated animals (experiment 1)",No significant differences
same,"blood glucose levels, D3 treated versus untreated STZ-induced animals",[2]; [4],No difference
same,"first signs of Diabetes (blood glucose ≧300 mg/dl), day post STZ administration",[2]; [4],4 days
same,rate of disease progression (slope of the graph) versus untreated STZ group,[2]; [4],essentially similar
same,time to establish Diabetes in 100% of animals,[2]; [4],15 days
same,mortality / survival during the course of the study,[2],increases survival
same,mortality / survival during the course of the study,[2]; listed as D3,no mortality was observed
same,animals classified as diabetic by day 36,[2]; [5],70%
same,deaths from diabetic complications or toxic events related to peptide or STZ treatment,[2]; [5],No animals succumbed to diabetic complications or experienced any toxic events
same,delay of first signs of diabetes versus untreated animals,[2]; [5],four
same,rate of disease progression (slope of the graph),[2]; [5],much less pronounced
same,"mean blood glucose levels, D3 treated versus untreated STZ-induced animals","[2]; experiment 2, high carbohydrate diet (~50% sucrose), older stock vial of STZ, 36 days, FIG. 16",higher than those observed in diabetic animals treated with D3 peptide; also recorded: marked reduction
same,day on which significant differences (p≦0.05) in mean blood glucose versus untreated diabetic animals were first observed,"[2]; experiment 2, high carbohydrate diet, D3 peptide every 3 days",10 days
same,% Inhibition mean,kinases,99.79%
same,inhibition of kinases of the panel,[3],specific inhibition activities to 7 kinases
